This is an account of results in ChEMBL document CHEMBL2150949, “Dibenzocycloheptanoids from the leaves of Cinnamomum subavenium” (J Nat Prod, 2012).

Structures are written as SMILES.

This experiment is described as follows: Inhibition of Bacillus stearothermophilus alpha-glucosidase type 4. More on the design: species or system Geobacillus stearothermophilus.
In turn, `COCC1=CCc2cc(OC)ccc2-c2cc(O)c(OC)cc21` displayed an IC50 of 118 µM.
`COc1cc([C@@H]2Oc3c(OC)cc(CCCO)cc3[C@@H]2CO[C@@H]2OC[C@@H](O)[C@H](O)[C@H]2O)ccc1O` returned an IC50 of 77.1 µM.
As for `CC/C=C/CCO[C@@H]1O[C@H](CO)[C@@H](O)[C@H](O)[C@H]1O`, the 50% inhibitory concentration (IC50) was above 150 µM.
For `C=CCc1ccc(O[C@@H]2O[C@H](CO[C@@H]3OC[C@](O)(CO)[C@H]3O)[C@@H](O)[C@H](O)[C@H]2O)cc1` the value was above 150 µM; for `CCCC(=O)c1c(O)cc(O)cc1O[C@@H]1O[C@H](CO)[C@@H](O)[C@H](O)[C@H]1O`, above 150 µM; for `O=C1C[C@H](c2ccc(O)cc2)Oc2cc(O)cc(O[C@@H]3O[C@H](CO)[C@@H](O)[C@H](O)[C@H]3O)c21`, 39.8 µM.
`O=C1C[C@@H](c2ccc(O)cc2)Oc2cc(O)cc(O[C@@H]3O[C@H](CO)[C@@H](O)[C@H](O)[C@H]3O)c21` had a half-inhibitory concentration (IC50) of 28.3 µM.
In the case of `C[C@H]1O[C@H](O[C@H]2[C@H](O)[C@@H](O)[C@@H](O[C@H]3[C@H](O)[C@@H](O)C(O)O[C@@H]3CO)O[C@@H]2CO)[C@H](O)[C@@H](O)[C@@H]1N[C@H]1C=C(CO)[C@@H](O)[C@H](O)[C@H]1O` (some centres undefined) [ACARBOSE] it was 0.034 µM.
For `OCCc1ccc(O)c(O)c1` [HYDROXYTYROSOL] the value was 109 µM; for `C[C@@H]1O[C@@H](OC[C@H]2O[C@@H](Oc3c(-c4ccc(O)cc4)oc4cc(O)cc(O)c4c3=O)[C@H](O)[C@@H](O)[C@@H]2O)[C@H](O)[C@H](O)[C@H]1O` [NICOTIFLOROSIDE], 110 µM; for `O=C(CCc1ccc(O)cc1)c1c(O)cc(O)cc1O[C@@H]1O[C@H](CO)[C@@H](O)[C@H](O)[C@H]1O` [PHLORIZIN], 60.5 µM.
In turn, `COc1cc2c(cc1O)-c1ccccc1CC=C2CO[C@@H]1O[C@H](CO)[C@@H](O)[C@H](O)[C@H]1O` [SUBAVENOSIDE A] registered an IC50 of 142 µM.
In the case of `COc1cc2c(cc1O[C@@H]1O[C@H](CO)[C@@H](O)[C@H](O)[C@H]1O)-c1ccccc1CC=C2CO` [SUBAVENOSIDE D] it was 50.7 µM; in that of `COCC1=CCc2cc(OC)ccc2-c2cc(O[C@@H]3O[C@H](CO)[C@@H](O)[C@H](O)[C@H]3O)c(OC)cc21` [SUBAVENOSIDE E], 19 µM.
